Marks after values point to notes of the source that are not given here.

The record followed here is patent US10046082B2, “Collagen sponge containing a drug for promoting fracture healing and method for preparing the same” (WUHAN VSD MEDICAL SCIENCE & TECHNOLOGY CO., LTD., priority 2015, dated 2018).

For one experiment, the system named is fracture sites. The experiment in a line: Callus cross-sectional area in rabbit fracture healing experiment. To be noted: sponge placed at fracture site (IB group: 0.1 mg/kg IB after surgery), n=5. The class given is in vivo, New Zealand rabbits. Here is the method:
(§1) 1.1. Experimental Animal: New Zealand rabbits, each being male and having a weight of about 2 to 3 kg (12 to 16 weeks old) were used
(§2) 1.2. Experimental Grouping and Materials: experiments were divided into a control group (Control), a collagen sponge (CS) group, an ibandronate sodium (0.1 mg/kg IB) group, a group with a small dosage of ibandronate sodium+collagen sponge (SIB+CS, 0.125 mg IB), a group with a median dosage of ibandronte sodium+collagen sponge (MIB+CS, 0.25 mg IB), and a group with a large dosage of ibandronate sodium+collagen sponge (LIB+CS, 0.5 mg IB), in total 6 groups. 10 experimental animals are used for each group, […].
(§3) Preparation of materials for the SIB+CS group: 125 μl of 1 mg/ml IB was added into 600 ml of the enzymolysis solution of collagen to prepare a 50*25*5 mm collagen sponge;
(§4) Preparation of materials for the MIB+CS group: 250 μl of 1 mg/ml IB was added into 600 ml of the enzymolysis solution of collagen to prepare a 50*25*5 mm collagen sponge;
(§5) Preparation of materials for the LIB+CS group: 500 μl of 1 mg/ml IB was added into 600 ml of the enzymolysis solution of collagen to prepare a 50*25*5 mm collagen sponge.
Male New Zealand rabbits were anesthetized by marginal ear vein injection with sodium pentobarbital (3%, […]). After the anesthesia, the skin in the surgical area was depilated with 8% sodium sulfide and disinfected. […]

The test system of experiment [1] is tibia fracture sites of the rabbits. The experiment in a line: Three-point bending force test at fracture sites of the rabbits. It is filed as in vivo, New Zealand rabbits. To be noted: n=5. How it is done: as §1, §2, §3, §4, §5
Male New Zealand rabbits were anesthetized by marginal ear vein injection with sodium pentobarbital (3%, […]). After the anesthesia, the skin in the surgical area was depilated with 8% sodium sulfide and disinfected. The animals were fixed on their backs, and disinfected and covered with a sterile towel or sheet. A longitudinal incision was cut at the distal femur of the right leg near the patella. The patella was retracted to expose the inner and outer condyles of the distal femur. A 2 mm Kirschner wire was inserted retrogradely between the inner and outer condyles through an electric drill. The Kirschner wire went through the medullary cavity and came out of the skin from the proximal femur. The distal end of the Kirschner wire was cut off and ensured to be embedded under the surface of the knee joint. The knee was reset. An incision was made on the outer side of the distal femur, and the femur was exposed along the intermuscular space. Sufficient protection was provided for the surrounding soft tissues such as muscles and blood vessels. The femur was cut by a dental drill. The Control group and the IB group were not subjected to any treatment. The prepared materials for the CS group, the SIB+CS group, the MIB+CS group and the LIB+CS group were placed at the fracture sites of the animals, respectively. The incisions and the skin were washed with sterile normal saline and sutured with 5-0 nylon thread. Normal saline (0.1 ml/kg) and ibandronate sodium (0.1 ml/kg) were administered to the Control group and the IB group after surgery, respectively. All the animals were injected intramuscularly with buprenorphine (0.05 mg/kg) twice and with ciprofloxacin (10 mg/kg) once a day for 3 days after the surgery. All the animals were fed normally (lightless, quiet, at a temperature from 20 to 26° C., and at a humidity below 80%). X-ray photographs were taken on the day of surgery to check the condition of fracture apposition and alignment after the surgery. Further, half of the New Zealand rabbits were sacrificed at the 2nd week and the 4th week for detection, respectively.
3.2. Three-point bending force test at tibia fracture sites of the rabbits at the second week and the fourth week

Take `CCCCCN(C)CCC(O)(P(=O)(O)O)P(=O)(O)O` [IB, ibandronate sodium]: the “callus cross-sectional area (CSA)” value in the experiment on fracture sites (2nd week after surgery) is given as 89.9 ± 3.6^a,h,i,j,k mm^2. In addition, the “callus cross-sectional area (CSA)” value with fracture sites (4th week after surgery) is reported as 120.5 ± 7.8^a,h,i,j,k mm^2. Besides, in experiment [1] (2nd week), the “Compressive Strength” value is on record as 4.7 ± 1.8 Nmm, the “Elastic Modulus” value was 7.3 ± 2.2 MPa and the “Limit Load” value came to 6.8 ± 1.7 N. Moreover, in experiment [1] (4th week), the “Compressive Strength” value is 64.6 ± 7.3^j Nmm, the “Elastic Modulus” value amounted to 88.2 ± 19.5 MPa and the “Limit Load” value is 95.9 ± 7.04^i,j N.
